In brackets after ≈: the same amount, converted by molar mass.
Tests used:
Test in all cases: Antibacterial activity (MIC)
Type in all cases: cell-based
[1] = system: Serratia marcescens ES-75; settings: ES75
Proteus morganii EP-14 = settings: Morganella morganii, EP14
Escherichia coli NIHJ = system: Escherichia coli NIHJ
[2] = system: Klebsiella pneumoniae EK-6; settings: EK6
[3] = system: Pseudomonas aeruginosa EP-172; settings: EP172
[4] = system: Staphylococcus aureus 209-P

Row | MIC [1] | MIC (Proteus morganii EP-14) | MIC (Escherichia coli NIHJ) | MIC [2] | MIC [3] | MIC [4] | SMILES
1 | ≤ 0.05 µg/mL | 1.56 µg/mL (≈ 1.79 µM) | 0.4 µg/mL (≈ 0.46 µM) | ≤ 0.05 µg/mL | 0.8 µg/mL (≈ 0.92 µM) | 6.25 µg/mL (≈ 7.19 µM) | CCOC(=O)Oc1cc2occ(C(=O)N[C@@H](C(=O)N[C@@H]3C(=O)N4C(C(=O)O)=C(CSc5nnnn5CC(=O)O)CS[C@H]34)c3ccc(O)cc3)c(=O)c2cc1OC(=O)OCC [Preparatory Example 2 A, 7β-[D-2-{6,7-bis(ethoxycarbonyloxy)chromone-3-carboxamido}-2-(4-hydroxyphenyl)acetamido]-3-[(1-carboxymethyl-5-tetrazolyl)thiomethyl]-3-cephem-4-carboxylic acid]
2 | ≤ 0.1 µg/mL | 12.5 µg/mL (≈ 17.2 µM) | 0.4 µg/mL (≈ 0.551 µM) | ≤ 0.1 µg/mL | 0.8 µg/mL (≈ 1.1 µM) | 3.13 µg/mL (≈ 4.31 µM) | O=C(O)Cn1nnnc1SCC1=C(C(=O)O)N2C(=O)[C@@H](NC(=O)[C@H](NC(=O)c3coc4cc(O)c(O)cc4c3=O)c3ccc(O)cc3)[C@H]2SC1 [Preparatory Example 2 B, 7β-[D-2-(6,7-Dihydroxychromone-3-carboxyamido)-2-(4-hydroxyphenyl)acetamido]-3-[(1-carboxymethyl-5-tetrazolyl)thiomethyl]-cephem-4-carboxylic acid]
